For 1 compound, Normal melting temperature results are on record in the NIST ThermoML archive (doi:10.1016/j.fluid.2007.07.070).

The conditions of this data set: Crystal; DTA.

± gives the expanded uncertainty stated by the source.

Take `O=C1c2ccccc2C(=O)C1c1nc2ccccc2cc1O` [1H-indene-1,3(2H)-dione, 2-(3-hydroxy-2-quinolinyl)-]: the Normal melting temperature was found to be 260.6 ± 0.5 °C.
